Source: patent US20240376437A1, “TARGETING VON WILLEBRAND FACTOR TO MODEL DISEASE IN HUMAN PLURIPOTENT STEM CELLS” (University of Washington, priority 2023, published 2024)

How the values were obtained:
Assay type in all cases: cell-based, human
[1] = system: VWF expression level in hPSC-EC; test: VWF expression level in hPSC-EC by immunofluorescence
Experimental: (§1) Cells were fixed with 4% paraformaldehyde in 1×PBS for 15 minutes and subsequently washed three times with 1×PBS. For immunofluorescence, fixed samples were blocked with 5% donkey serum plus 0.1% Triton X-100 in 1×PBS, incubated overnight in 3% bovine serum albumin (BSA) (Sigma Aldrich)+1×PBS with primary antibodies, washed, incubated with secondary antibodies, washed and imaged. Primary antibodies included antibodies for VWF (Agilent Technologies; A008202), β-Actin (Cell Signaling Technology; 4970); DAPI (Cayman Chemical Company; 14285), Angiopoietin 2 (R&D Systems; AF623), CD31 (BD Biosciences; 555444), CD144 (BD Biosciences; 555661), and Notch1 (Cell Signaling Technology; 3608S). Fluorescence labeled antibodies included anti-rabbit IgG secondary antibody Alexa Fluor 488 (Thermo Fisher Scientific; A32731), anti-mouse IgG secondary antibody Alexa Fluor 555 (Thermo Fisher Scientific; A21422), and FITC anti-VWF antibody (Abcam; ab8822). To compare different experimental conditions, images were collected at identical microscopy setup using wide field or confocal fluorescence microscope. […]
hPSC-EC were treated with blood plasma or compounds to test their effects on VWF expression level in cells. […] Due to the high fluorescence background in 40% and 80% plasma treated cells, we only used less than 40% plasma to treat cells for immunofluorescence imaging. […]

[2] = system: VWF expression level in hPSC-EC; test: VWF and CD144 protein in hPSC-EC by immunoblot
Experimental: Whole cells lysate was extracted using 1× RIPA lysis and extraction buffer (Thermo Fisher Scientific) supplemented with 1× protease inhibitor cocktail (Sigma Aldrich) and 1 μL Benzonase nuclease (Sigma Aldrich) per sample. Each sample was supplied with 100 mM DTT (Sigma Aldrich) and 1× Laemmli sample buffer (Bio-Rad) and heated at 95° C. for 5 minutes. The primary antibodies above were added to samples and followed by anti-rabbit or anti-mouse IgG secondary antibody conjugated with HRP (Thermo Fisher Scientific; 31460 or 31430). Immunoblots were imaged in the presence of Pierce ECL Western Blotting substrate (Thermo Fisher Scientific) and quantified using Fiji software.
Ten compounds were added separately to hPSC culture medium on day 6 of the cell differentiation and maintained in the media thereafter. The untreated cell culture medium was EGM with additional 20 ng/ml VEGF, 20 ng/ml FGF, and 1 μM Chir99021. Based on untreated cell culture medium, we tested the following additional concentrations of compounds: VEGF (30, 70, 120 ng/ml, Peprotech 100-20), FGF (30, 70, 120 ng/ml, PeproTech 100-18B), human transforming growth factor β1 (TGFβ1, 1, 3, 10 ng/ml, R&D Systems 240-B), lipopolysaccharide (LPS, 1, 3, 10 ng/ml, Santa Cruz sc-3535), human interferon gamma (IFN, 1, 3, 10 ng/ml, Peprotech 300-02), human noggin (1, 3, 10 ng/ml, Peprotech, 120-10C), Chir99021 (1, 3, 10 µM, Reprocell 04-0004-10), Smoothened agonist (SAG, 1, 3, 10 μM, Cayman Chemical 11914), BMP4 (1, 3, 10, 50 ng/ml, R&D Systems 314-BP), or DAPT (1, 3, 10 µM, Tocris 2634). Concentrations of these compounds that were likely to be safe and efficacious were used based on the literature and previous experience. To treat HUVEC with DAPT (Tocris 2634), 0/10/30 μM DAPT was added to the cell culture medium EGM on day 2 after cell passaging and maintained in the media thereafter. The cell culture medium with corresponding compound was changed every two days until cell fixation or cell lysis experiment on day 10-14 for hSPC-EC or day 7-9 for HUVEC.

VWF level in HUVEC = VWF level in HUVEC treated with DAPT (immunofluorescence and immunoblot)
Experimental: Cells were fixed with 4% paraformaldehyde in 1×PBS for 15 minutes and subsequently washed three times with 1×PBS. For immunofluorescence, fixed samples were blocked with 5% donkey serum plus 0.1% Triton X-100 in 1×PBS, incubated overnight in 3% bovine serum albumin (BSA) (Sigma Aldrich)+1×PBS with primary antibodies, washed, incubated with secondary antibodies, washed and imaged. Primary antibodies included antibodies for VWF (Agilent Technologies; A008202), β-Actin (Cell Signaling Technology; 4970); DAPI (Cayman Chemical Company; 14285), Angiopoietin 2 (R&D Systems; AF623), CD31 (BD Biosciences; 555444), CD144 (BD Biosciences; 555661), and Notch1 (Cell Signaling Technology; 3608S). Fluorescence labeled antibodies included anti-rabbit IgG secondary antibody Alexa Fluor 488 (Thermo Fisher Scientific; A32731), anti-mouse IgG secondary antibody Alexa Fluor 555 (Thermo Fisher Scientific; A21422), and FITC anti-VWF antibody (Abcam; ab8822). To compare different experimental conditions, images were collected at identical microscopy setup using wide field or confocal fluorescence microscope. Image analysis was performed using Fiji software.
Whole cells lysate was extracted using 1× RIPA lysis and extraction buffer (Thermo Fisher Scientific) supplemented with 1× protease inhibitor cocktail (Sigma Aldrich) and 1 μL Benzonase nuclease (Sigma Aldrich) per sample. […]

[3] = system: VWF at the hPSC-EC surface; test: VWF string formation assay under flow after PMA stimulation; details: 3 μM DAPT from day 6; 100 ng/mL PMA 20 min, flow 2.5 dyn/cm^2 5 min
Experimental: The hPSC-EC from day 5 of cell differentiation were seeded in a flow chamber (ibidi GmbH, μ-slide VI 0.4, 17×3.8×0.4 mm) precoated with 2.5 mg/mL collagen (Corning, Rate Tail Collagen Type I). Cells were fed by EGM endothelial cell growth medium+20 ng/ml recombinant human VEGF165+20 ng/mL recombinant human FGF-basic+1 μM Chir-99021 until day 12 of cell differentiation. The flow chamber was washed by 100 μl EBM endothelial cell growth basal medium (Lonza) twice. Cells were stimulated in EBM medium with 100 ng/mL PMA at stasis at 37° C. and 5% CO2 for 20 minutes and then followed by flow (2.5 dyn/cm^2 wall shear stress) using a syringe pump for 5 minutes. After flow stopped, the flow chamber was blocked by 6% BSA (Sigma Aldrich) in EBM medium for 10 minutes. […] Cells were washed by EBM medium for three times and imaged under Olympus wide field fluorescence microscope. […]
VWF forms strings on HUVEC surface upon stimulation by agonists such as phorbol 12-myristate 13-acetate (PMA) (FIG. 10A). […] The effect of enhancing VWF level on VWF string formation was then evaluated. hPSC-EC were transferred into a microfluidic channel on day 5 of differentiation and treated with 3 μM DAPT from day 6 onwards. […] VWF attached to the EC surface was detected live by FITC-labeled anti-VWF antibody, which was introduced under flow. […]

hPSC-EC = hPSC-EC maturation: cell size and CD144 junction morphology; details: 0 or 3 μM DAPT
Experimental: as §1
hPSC-EC were treated with blood plasma or compounds to test their effects on VWF expression level in cells. […] Due to the high fluorescence background in 40% and 80% plasma treated cells, we only used less than 40% plasma to treat cells for immunofluorescence imaging.

C[C@H](NC(=O)Cc1cc(F)cc(F)c1)C(=O)N[C@H](C(=O)OC(C)(C)C)c1ccccc1 [DAPT]
Levels of VWF by immunofluorescence in screen of ten compounds ([1]; added day 6 of differentiation, DAPT 1 μM): substantially increased levels of VWF
Increase of VWF fluorescence intensity vs untreated control, repeated trials ([1]; final concentration of 1 μM DAPT): approximately two-fold
CD144 marker for EC ([2]; DAPT-treated hPSC-EC): does not affect CD144
VWF protein by immunoblot ([2]; DAPT-treated hPSC-EC): confirmed the increase in VWF protein
DAPT final concentration at which VWF protein peaks (immunoblot) ([2]; hPSC-EC, DAPT 1, 3, 10 μM): ~3 µM
VWF level in HUVEC by immunofluorescence and immunoblot (VWF level in HUVEC; 0/10/30 μM DAPT): enhanced VWF level with increased DAPT concentrations
VWF increase compared to untreated controls (VWF level in HUVEC; HUVEC, 10 μM DAPT): ~1.7 times
VWF attached to the EC surface of control hPSC-EC [3]: numerous foci of VWF at the cell surface
VWF string formation [3]: formed strings attached to the EC surface
Changes in hPSC-EC size or junctional morphology (hPSC-EC): did not induce the changes
